Assays:
[1] = target: T1, FLT3-D835Y mutant kinase (Homo sapiens, UniProt P36888, D835Y); assay: FLT3-D835Y mutant kinase assay (AlphaScreen); format: biochemical; conditions: read-out: Ranking of IC50 values, FLT3-D835Y
T1 construct: purchased SignalChem
T1 sequence (P36888 27-993 D835Y): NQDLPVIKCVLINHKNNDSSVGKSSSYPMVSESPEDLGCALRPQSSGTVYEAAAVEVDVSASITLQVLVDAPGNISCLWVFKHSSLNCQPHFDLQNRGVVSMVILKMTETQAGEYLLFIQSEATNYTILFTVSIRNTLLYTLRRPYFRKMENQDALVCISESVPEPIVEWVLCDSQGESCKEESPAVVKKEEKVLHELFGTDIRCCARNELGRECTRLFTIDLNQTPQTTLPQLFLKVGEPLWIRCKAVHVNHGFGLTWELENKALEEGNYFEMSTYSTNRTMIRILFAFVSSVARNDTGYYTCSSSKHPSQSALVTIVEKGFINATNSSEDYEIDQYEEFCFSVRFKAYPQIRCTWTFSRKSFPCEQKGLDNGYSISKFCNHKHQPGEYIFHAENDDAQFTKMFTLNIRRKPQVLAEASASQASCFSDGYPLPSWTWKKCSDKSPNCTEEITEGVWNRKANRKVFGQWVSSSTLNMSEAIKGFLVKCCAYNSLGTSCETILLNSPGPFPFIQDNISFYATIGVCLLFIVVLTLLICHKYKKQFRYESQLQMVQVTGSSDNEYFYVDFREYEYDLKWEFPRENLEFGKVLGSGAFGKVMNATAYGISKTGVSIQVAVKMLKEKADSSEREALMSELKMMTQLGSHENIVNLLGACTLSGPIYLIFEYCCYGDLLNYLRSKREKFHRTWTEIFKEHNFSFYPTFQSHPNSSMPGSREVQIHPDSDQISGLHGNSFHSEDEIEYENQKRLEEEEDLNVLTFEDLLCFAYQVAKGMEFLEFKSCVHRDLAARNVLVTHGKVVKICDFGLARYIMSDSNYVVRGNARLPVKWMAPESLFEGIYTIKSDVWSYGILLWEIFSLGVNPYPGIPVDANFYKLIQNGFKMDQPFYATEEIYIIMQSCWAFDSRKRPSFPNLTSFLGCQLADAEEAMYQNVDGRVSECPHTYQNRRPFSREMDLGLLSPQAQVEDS
Outline: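 Recombinant FLT3-D835Y (1 ng) phosphorylated biotin-poly(Glu4:Tyr1) at 10 μM ATP, pH 7.0 MOPS buffer with 10 mM MgCl2, for 30 min at 30 °C, stopped with EDTA. Product was read by AlphaScreen. IC50 came from serial dilutions run in duplicate.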

[2] = system: MV4-11 human acute myeloid leukemia cell with FLT3-ITD mutation; assay: MV4-11 cell proliferation assay (CellTiter 96); format: cell-based; conditions: Homo sapiens, MV4-11, 72 h, MV4-11 cells, 72 hours treatment, CellTiter96; read-out: anti-proliferation activity MV4-11 (FLT3-ITD), IC50 ranking
Outline: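 Cells seeded at 6500/well in IMDM with 10% heat-inactivated FBS, left overnight at 37 °C, 5% CO2, then exposed to increasing compound concentrations for 72 h. Viability read as absorbance at 490 nm after 2–4 h with CellTiter96 AQueous One reagent.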

[3] = target: T2, PDGFRα kinase (Homo sapiens, UniProt P16234); assay: PDGFRα kinase assay (AlphaScreen); format: biochemical; conditions: read-out: Ranking of IC50 values, PDGFRα
T2 construct: purchased SignalChem
T2 sequence (P16234 24-1089): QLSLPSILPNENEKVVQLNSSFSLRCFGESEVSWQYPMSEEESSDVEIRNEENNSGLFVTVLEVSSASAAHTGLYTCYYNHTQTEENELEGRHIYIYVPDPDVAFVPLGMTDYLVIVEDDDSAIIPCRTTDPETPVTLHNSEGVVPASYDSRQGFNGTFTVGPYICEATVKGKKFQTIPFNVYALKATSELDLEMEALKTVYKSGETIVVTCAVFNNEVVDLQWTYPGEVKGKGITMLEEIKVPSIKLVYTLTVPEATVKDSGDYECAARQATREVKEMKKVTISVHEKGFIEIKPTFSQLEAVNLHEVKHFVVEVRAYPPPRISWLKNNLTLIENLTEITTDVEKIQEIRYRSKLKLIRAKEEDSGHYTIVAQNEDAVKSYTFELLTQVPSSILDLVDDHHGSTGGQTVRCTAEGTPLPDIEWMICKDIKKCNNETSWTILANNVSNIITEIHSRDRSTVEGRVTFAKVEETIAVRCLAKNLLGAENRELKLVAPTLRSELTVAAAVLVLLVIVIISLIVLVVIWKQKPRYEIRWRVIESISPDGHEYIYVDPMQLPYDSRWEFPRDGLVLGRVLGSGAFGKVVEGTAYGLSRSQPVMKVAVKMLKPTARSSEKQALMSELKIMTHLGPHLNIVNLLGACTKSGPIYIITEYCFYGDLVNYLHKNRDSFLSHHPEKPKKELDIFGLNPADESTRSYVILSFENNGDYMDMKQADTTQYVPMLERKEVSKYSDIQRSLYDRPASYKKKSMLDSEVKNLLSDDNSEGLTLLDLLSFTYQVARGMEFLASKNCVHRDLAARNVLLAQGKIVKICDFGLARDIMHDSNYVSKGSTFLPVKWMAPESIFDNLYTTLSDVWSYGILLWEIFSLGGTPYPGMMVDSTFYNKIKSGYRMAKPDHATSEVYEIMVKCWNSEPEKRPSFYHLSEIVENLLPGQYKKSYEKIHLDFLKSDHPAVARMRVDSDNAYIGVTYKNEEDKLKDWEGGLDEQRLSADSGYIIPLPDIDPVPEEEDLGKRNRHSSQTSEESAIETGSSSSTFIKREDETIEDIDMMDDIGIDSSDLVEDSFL
Outline: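 Recombinant PDGFRα (1.5 ng) phosphorylated biotinylated poly(Glu4:Tyr1) with 10 μM ATP in MOPS pH 7.0 with 10 mM MgCl2, 30 min at 30 °C, stopped with EDTA. Product detected by AlphaScreen; IC50 from serial dilutions run in duplicate.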

Compound	IC50 [1]	IC50 [2]	IC50 [3]
Cn1ncc2ccc(-c3n[nH]c4c3Cc3sc(-c5ccc(CN6CCOCC6)s5)cc3-4)cc21 [Compound 51, 4-((5-(3-(1-methyl-1H-indazol-6-yl)-1,4-dihydro-thieno[2′,3′:4,5]cyclopenta [1,2-c]pyrazol-6-yl)thiophen-2-yl)methyl) morpholine]	< 0.001 µM	< 0.03 µM	0.01 to 0.03 µM
Cc1cc(-c2cc3c(s2)Cc2c(-c4ccc5cnn(C)c5c4)n[nH]c2-3)ccn1 [Compound 17, 3-(1-methyl-1H-indazol-6-yl)-6-(2-methylpyridin-4-yl)-1,4-dihydrothieno [2′,3′:4,5]cyclopenta[1,2-c] pyrazole]	0.001 to 0.01 µM	< 0.03 µM	0.01 to 0.03 µM
Cn1ncc2ccc(-c3n[nH]c4c3Cc3sc(-c5ccc(CN6CCOCC6)c(C(F)(F)F)c5)cc3-4)cc21 [Compound 27, 4-(4-(3-(1-methyl-1H-indazol-6-yl)-1,4-dihydrothieno[2′,3′:4,5]cyclopenta[1,2-c]pyrazol-6-yl)-2-(trifluoromethyl)benzyl)morpholine]	0.001 to 0.01 µM	0.3 to 1 µM	0.1 to 0.3 µM
C[C@@H]1CN(Cc2cccc(-c3cc4c(s3)Cc3c(-c5ccc6cnn(C)c6c5)n[nH]c3-4)c2)C[C@H](C)O1 [Compound 12, (2S,6R)-2,6-dimethyl-4-(3-(3-(1-methyl-1H-indazol-6-yl)-1,4-dihydrothieno [2′,3′:4,5]cyclopenta[1,2-c]pyrazol-6-yl)benzyl) morpholine]	0.001 to 0.01 µM	0.03 to 0.1 µM	0.03 to 0.1 µM
Cn1ncc2ccc(-c3n[nH]c4c3Cc3sc(-c5cccc(C(=O)N6CCOCC6)c5)cc3-4)cc21 [Compound 37, (3-(3-(1-methyl-1H-indazol-6-yl)-1,4-dihydro-thieno[2′,3′:4,5]cyclopenta [1,2-c]pyrazol-6-yl)phenyl)(morpholino) methanone]	0.001 to 0.01 µM	< 0.03 µM	0.001 to 0.01 µM
Cn1ncc2ccc(-c3n[nH]c4c3Cc3sc(-c5ccc(CN6CC7(COC7)C6)cc5)cc3-4)cc21 [Compound 102, 6-(4-(3-(1-methyl-1H-indazol-6-yl)-1,4-dihydro-thieno[2′,3′:4,5]cyclopenta [1,2-c]pyrazol-6-yl)benzyl)-2-oxa-6-azaspiro [3.3]heptane]	< 0.001 µM	0.03 to 0.1 µM	0.001 to 0.01 µM
Cn1ncc2ccc(-c3n[nH]c4c3Cc3sc(-c5ccc(C=C6CCOCC6)cc5)cc3-4)cc21 [Compound 76, 3-(1-methyl-1H-indazol-6-yl)-6-(4-((tetrahydro-4H-pyran-4-ylidene)methyl)phenyl)-1,4-dihydrothieno[2′,3′:4,5] cyclopenta[1,2-c]pyrazole]	0.001 to 0.01 µM	0.3 to 1 µM	0.1 to 0.3 µM
C[C@@H]1CN(Cc2ccc(-c3cc4c(s3)Cc3c(-c5ccc6cnn(C)c6c5)n[nH]c3-4)cc2)C[C@H](C)O1 [Compound 54, (2S,6R)-2,6-dimethyl-4-(4-(3-(1-methyl-1H-indazol-6-yl)-1,4-dihydro-thieno[2′,3′:4,5]cyclopenta [1,2-c]pyrazol-6-yl)benzyl)morpholine]	< 0.001 µM	< 0.03 µM	0.001 to 0.01 µM
Cn1ncc2ccc(-c3n[nH]c4c3Cc3sc(-c5ccc(CN6CCNC(=O)C6)cc5)cc3-4)cc21 [Compound 63, 4-(4-(3-(1-methyl-1H-indazol-6-yl)-1,4-dihydro-thieno[2′,3′:4,5]cyclopenta [1,2-c]pyrazol-6-yl)benzyl)piperazin-2-one]	0.001 to 0.01 µM	< 0.03 µM	0.001 to 0.01 µM
Cn1ncc2ccc(-c3n[nH]c4c3Cc3sc(-c5cnc(C(=O)N6CCOCC6)nc5)cc3-4)cc21 [Compound 41, (5-(3-(1-methyl-1H-indazol-6-yl)-1,4-dihydrothieno[2′,3′:4,5]cyclopenta[1,2-c]pyrazol-6-yl)pyrimidin-2-yl) (morpholino)methanone]	0.001 to 0.01 µM	< 0.03 µM	0.01 to 0.03 µM
Cn1ncc2ccc(-c3n[nH]c4c3Cc3sc(-c5ccc(CN6CCOCC6)nc5)cc3-4)cc21 [Compound 10, 4-((5-(3-(1-methyl-1H-indazol-6-yl)-1,4-dihydro-thieno[2′,3′:4,5]cyclopenta [1,2-c]pyrazol-6-yl)pyridin-2-yl)methyl)morpholine]	< 0.001 µM	< 0.03 µM	0.001 to 0.01 µM
Cn1ncc2ccc(-c3n[nH]c4c3Cc3sc(-c5ccc(CN6CCC(F)(F)C6)cc5)cc3-4)cc21 [Compound 67, 6-(4-((3,3-difluoro-pyrrolidin-1-yl)methyl)phenyl)-3-(1-methyl-1H-indazol-6-yl)-1,4-dihydro-thieno[2′,3′:4,5]cyclopenta [1,2-c]pyrazole]	0.001 to 0.01 µM	0.1 to 0.3 µM	0.01 to 0.03 µM
Cn1ncc2ccc(-c3n[nH]c4c3Cc3sc(-c5cccc(OCCN6CCOCC6)c5)cc3-4)cc21 [Compound 70, 4-(2-(3-(3-(1-methyl-1H-indazol-6-yl)-1,4-dihydro-thieno[2′,3′:4,5]cyclopenta [1,2-c]pyrazol-6-yl)phenoxy)ethyl)morpholine]	< 0.001 µM	0.03 to 0.1 µM	0.01 to 0.03 µM
